Results published in PubChem BioAssay AID608 (Sanford-Burnham Center for Chemical Genomics, 2007).
Active and inactive are the calls of the source. How the calls were made is not given here.

What follows are compounds tested against Peptidyl-prolyl cis-trans isomerase FKBP1A (Homo sapiens) (UniProt P62942) (assay: FKBP12 binders, biophysical, NMR detection (AID 608)). Details: NMR binding, purified FKBP12.
Sequence of Peptidyl-prolyl cis-trans isomerase FKBP1A (Homo sapiens) (P62942 whole entry, looked up): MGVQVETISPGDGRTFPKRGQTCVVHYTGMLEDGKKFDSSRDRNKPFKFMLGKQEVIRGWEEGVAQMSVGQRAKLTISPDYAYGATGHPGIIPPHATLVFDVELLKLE
`Cn1nc(C(=O)N2CCOCC2)c2ccccc2c1=O` was tested, and the Kd was > 4 mM (inactive). For `Nc1cccc(OCC(=O)N2CCOCC2)c1`, the Kd was > 4 mM (inactive). For `COc1ccc(NC(=O)/C=N/O)cc1`, the Kd was > 4 mM (inactive). For `O=C(C1CCC(C(=O)N2CCCC2)CC1)N1CCCC1` (centres undefined), the Kd was > 4 mM (inactive). `O=C(O)C1=CCCNC1` was tested, and the Kd was > 4 mM (inactive). For `O=C(Nc1ncccn1)c1cccc(F)c1`, the Kd was > 4 mM (inactive). For `CC(=O)OCC[C@H](C)CCC=C(C)C`, the Kd was > 4 mM (inactive). In the case of `O=C(O)C(CO)c1ccccc1` (centres undefined), the Kd is reported as > 4 mM (inactive). For `COc1cc2c3cc1Oc1c(OC)c(OC)cc4c1[C@@H](Cc1cccc(c1)Oc1ccc(c(O)c1)C[C@@H]3N(C)CC2)N(C)CC4`, the Kd was > 4 mM (inactive). `COc1cc2c(cc1OC)-c1nnnn1C(C)(C)C2` was tested, and the Kd was > 4 mM (inactive). With `Cc1ccccc1NC(=O)C1CC(=O)N=C(N)S1` (centres undefined) the Kd was > 4 mM (inactive). In the case of `O=C(CC1SC(=O)NC1=O)Nc1nccs1` (centres undefined), the Kd is reported as > 4 mM (inactive). With `NC(=O)c1c(Cl)nsc1-c1ccccc1Cl` the Kd was > 4 mM (inactive). For `Cc1noc(C)c1C(=O)NCc1cccs1`, the Kd was > 4 mM (inactive). With `O=C1OCCC1Sc1nc2ccccc2c(=O)[nH]1` (centres undefined) the Kd was > 4 mM (inactive). For `O=C1C=CC(=O)N1c1ccc(N2CCOCC2)cc1`, the Kd was > 4 mM (inactive). With `CC(C)c1ccc(S(=O)(=O)CC(=O)N2CCOCC2C(=O)OCCCc2cccnc2)cc1` (centres undefined) the Kd was “inactive”. With `O=C1NC(=S)N/C1=C\c1ccccc1` the Kd was > 4 mM (inactive). With `CC[C@]12CCCN3CCc4c(n(c5ccccc45)[C@](O)(C(=O)OC)C1)[C@@H]32` the Kd was > 4 mM (inactive). `O=C(CSc1ccc(C(F)(F)F)cc1[N+](=O)[O-])N1CCOCC1` showed a Kd of 0.448 mM. `Cc1cccc(NC(=O)c2ccccc2C(=O)O)c1` was tested, and the Kd was > 4 mM (inactive). With `Nc1ncnc(NCCCO)c1[N+](=O)[O-]` the Kd was > 4 mM (inactive). For `Cc1nnsc1C(=O)Nc1cccc(S(N)(=O)=O)c1`, the Kd was > 4 mM (inactive). `O=C(Nc1cnccn1)c1cccs1` was tested, and the Kd was > 4 mM (inactive). With `Cc1c(C)c2c(c(C)c1O)CCC(C)(CCCC(C)CCCC(C)CCCC(C)C)O2` (centres undefined) the Kd was > 4 mM (inactive). For `O=C1CC(NCc2ccco2)C(=O)NN1` (centres undefined), the Kd was > 4 mM (inactive). With `Cc1cc(C(=O)Nc2ccc3c(c2)OCCO3)c(C)o1` the Kd was > 4 mM (inactive). For `CN1CCN(CC(=O)N2CCc3ccccc32)CC1`, the Kd was > 4 mM (inactive). With `Oc1cccc2[nH]ccc12` the Kd was > 4 mM (inactive). In the case of `COC1(C)CCC2OC2(C)CCC2C1CC2(C)C` (centres undefined), the Kd is reported as > 4 mM (inactive). `Nc1nncn1C(=O)c1c(Cl)cccc1Cl` was tested, and the Kd was > 4 mM (inactive). In the case of `O=C(NCc1ccccc1)c1ccc[n+]([O-])c1`, the Kd is reported as > 4 mM (inactive). For `Cc1ccnc(NS(=O)(=O)c2cccs2)c1`, the Kd was > 4 mM (inactive). For `O=C(c1ccco1)N1CCN(c2ccc(Cl)cc2)CC1`, the Kd was > 4 mM (inactive). For `CC1(C)C2C[C@@H](O)[C@]3(C)C(CC[C@@]4(C)[C@H](c5ccoc5)OC(=O)[C@H]5O[C@]543)[C@@]2(C)[C@@H](O)C[C@H]1O` (some centres undefined), the Kd was > 4 mM (inactive). `O=C1CNCc2[nH]c3ccccc3c2N1c1ccccc1` was tested, and the Kd was > 4 mM (inactive). In the case of `Cc1ccc(C(=O)Nc2ccncc2)o1`, the Kd is reported as > 4 mM (inactive). `Cc1cc(NC(=O)c2ccc3c(c2)OCCO3)no1` was tested, and the Kd was > 4 mM (inactive). With `CN1C(=O)Cc2cc(S(N)(=O)=O)ccc21` the Kd was > 4 mM (inactive). With `COC(=O)CC1NC2CCCCC2NC1=O` (centres undefined) the Kd was > 4 mM (inactive). With `CN(C)c1n[nH]c(=O)[nH]c1=O` the Kd was > 4 mM (inactive). `COc1nc(N2CCOCC2)nc(N)c1[N+](=O)[O-]` was tested, and the Kd was > 4 mM (inactive). In the case of `COC(=O)[C@]1(C)CC[C@]2(C)CC[C@]3(C)C4=CC=C5C(=CC(=O)C(O)=C5C)[C@]4(C)CC[C@@]3(C)[C@@H]2C1`, the Kd is reported as > 4 mM (inactive). In the case of `NS(=O)(=O)c1ccc2c3c(cccc13)C(=O)N2`, the Kd is reported as > 4 mM (inactive). `O=C(O)CCc1c[nH]c2ccccc12` was tested, and the Kd was > 4 mM (inactive). With `OCc1snnc1-c1ccccc1` the Kd was > 4 mM (inactive). With `COc1cc2c(cc1OC)C1Cc3ccc(OC)c(OC)c3CN1CC2` (centres undefined) the Kd was > 4 mM (inactive). `O=c1[nH]c(=O)c2[nH]cnc2[nH]1` was tested, and the Kd was > 4 mM (inactive). With `Cc1nc(NC(=O)c2cccnc2)ccc1Br` the Kd was > 4 mM (inactive). `O=C(O)c1ccnn1-c1ccccc1` was tested, and the Kd was > 4 mM (inactive). With `COc1cc(C2NC(=S)NC(C)=C2C(C)=O)ccc1O` (centres undefined) the Kd was > 4 mM (inactive). In the case of `COC(=O)c1nc(-c2ccccc2)oc1N(C)C`, the Kd is reported as > 4 mM (inactive). In the case of `NC(=O)c1c[nH]c2ccccc12`, the Kd is reported as > 4 mM (inactive). With `O=C(O[C@@H]1Cc2c(O)cc(O)cc2O[C@@H]1c1cc(=O)c(O)c2c(O)c(O)cc([C@H]3Oc4cc(O)cc(O)c4C[C@H]3O)c2c1)c1cc(O)c(O)c(O)c1` the Kd was > 4 mM (inactive). For `CN1CC(=O)Nc2ccc([N+](=O)[O-])cc2C1=O`, the Kd was > 4 mM (inactive). In the case of `Cc1occc1C(=O)Nc1sccc1C(N)=O`, the Kd is reported as > 4 mM (inactive). In the case of `O=[N+]([O-])c1cccc2c1nnn2C(CO)OCCO` (centres undefined), the Kd is reported as > 4 mM (inactive). With `O=C(Nc1ccccc1N1CCCC1)c1cccnc1` the Kd was > 4 mM (inactive). With `Oc1ccc(C(=S)N2CCCCC2)cc1Cl` the Kd was > 4 mM (inactive).
